Experimental data reported in patent publication US10377747B2, “2-arylamino pyridine, pyrimidine or triazine derivatives, preparation method and use thereof” (Wuxi Shuangliang Biotechnology Co., Ltd., priority 2015, dated 2019).

Tests used:
[1] = tested on: H1975 (non-small-cell lung cancer cells. EGFR L858K/T790M); assay: Tumor cell proliferation and growth inhibition analysis (Cell Titer-Glo, 72 h), H1975; format: cell-based; details: Homo sapiens, NCI-H1975; H1975 cells, 72 h exposure, Cell Titer-Glo; read-out: H1975 GI50
From the text: (§1) […] cell proliferation assay is described as follows.
(§2) Tumor cell proliferation and growth inhibition analysis: H1975 (non-small-cell lung cancer cells. EGFR L858K/T790M) and A431 (human epidermal cancer cells, EGFR wild type) cells were commercially available from the ATCC cell bank. […] The growth medium for A431 cells was DMEM (GIBCO, 11995-065), 10% fetal bovine serum. The influence exerted by the compounds on the proliferation activity of tumor cells was detected by Cell Titer-Glo assay. Tumor cells were exposed to the treatment conditions for 72 h, and the cell density used in each experiment for each cell line was adjusted according to the 72 h cell growth curve. 10 concentration gradients and three-fold dilutions (0.5 nM-10 μM) were set for compounds to be tested, and 3 parallel controls were used for each concentration value.
(§3) Trypsin was used for digesting cells in the logrithmic growth phase to prepare cell suspension, which was counted by a Roche counter and appropriately diluted with complete medium to a final cell concentration of 1˜2×10^3 cell/mL. 384-well plates were seeded with cells, and 22.6 μL were seeded for each well. 3 parallels were set. The plates were incubated in an incubator with 5% CO2 at 37° C. overnight. The compounds were dissolved in DMSO to prepare […] mother liquor. […] 2 μL of compound solution was added into 18 μL of culture medium, and fully mixed. Then 2 μL of mixed solution of compound and culture medium was added into 18 μL of culture medium, and fully mixed. 2.4 μL of mixtures were added into a 384-well plates. […] After cultivation for 72 h, 24 μL of Cell Titer-Glo reagent was added. The contents were mixed on an orbital shaker for 2 min to induce cell lysis. The 384-well plates were incubated at room temperature for 10 min to stabilize the […] signal value. Data was read by Infinite® M1000 PRO (TECAN), and calculated with GraphPad Prism version 5.0. GI50 value was obtained by adjustment using a non-linear regression model of dose response curves.

[2] = tested on: A431 (human epidermal cancer cells, EGFR wild type); assay: Tumor cell proliferation and growth inhibition analysis (Cell Titer-Glo, 72 h), A431; format: cell-based; details: A-431, 72 h exposure
From the text: as §1, §2, §3

SMILES | GI50 [1] | GI50 [2]
C=CC(=O)Nc1cc(Nc2nccc(-c3nn(C)c4ccsc34)n2)c(OC(F)F)cc1N1CC(N(C)C)C1 [Example 27, N-(4-(difluoromethoxy)-2-(3-(dimethylamino)azetidin-1-yl)-5-((4-(1-methyl-1H-thieno[3,2-c]pyrazol-3-yl)pyrimidin-2-yl)amino)phenyl)acrylamide] | 1.1 µM | 2.54 µM
C=CC(=O)Nc1cc(Nc2nccc(-c3nn(C)c4ccsc34)n2)c(OC(F)F)cc1N1CCC(N(C)C)CC1 [Example 28] | 0.261 µM | 5.3 µM
C=CC(=O)Nc1cc(Nc2ncnc(-c3cccc4cc[nH]c34)n2)c(OC)cc1N1CCN(C)CC1 [Example 34, N-(5-((4-(1H-indol-7-yl)-1,3,5-triazin-2-yl)amino)-4-methoxy-2-(4-methylpiperazin-1-yl)phenyl)acrylamide] | 0.462 µM | 2.57 µM
C=CC(=O)Nc1cc(Nc2ncnc(-c3cccc4cc[nH]c34)n2)c(OC)cc1N1CC(N(C)C)C1 [Example 35, N—(5-((4-(1H-indol-7-yl)-1,3,5-triazin-2-yl)amino)-2-(3-(dimethylamino)azetidin-1-yl)-4-methoxyphenyl)acylamide] | 1.56 µM | 3.32 µM
C=CC(=O)Nc1cc(Nc2ncnc(-c3cccc4ccn(C)c34)n2)c(OC)cc1N(C)CCN(C)C [Example 37, N-(2-((2-(dimethylamino)ethyl)(methyl)amino)-4-methoxy-5-((4-(1-methyl-1H-indol-7-yl)-1,3,5-triazin-2-yl)amino)phenyl)acrylamide] | 0.441 µM | 1.32 µM

These reach a lower GI50 [1]. Values come first.

GI50 [1] | GI50 [2] | SMILES
0.0603 µM | > 1 µM | C=CC(=O)Nc1cc(Nc2nccc(-c3nn(C)c4ccsc34)n2)c(OC(F)F)cc1N1CC2(CCCN2C)C1 [Example 29, N-(4-(difluoromethoxy)-5-((4-(1-methyl-1H-thieno[3,2-c]pyrazol-3-yl)pyrimidin-2-yl)amino)-2-(5-methyl-2,5-diazaspiro[3.4]oct-2-yl)phenyl)acrylamide]
0.0215 µM | 0.943 µM | C=CC(=O)Nc1cc(Nc2nccc(-c3cn(C)c4cc(C)sc34)n2)c(OC)cc1N(C)CCN(C)C [Example 30]
0.0335 µM | 0.625 µM | C=CC(=O)Nc1cc(Nc2nccc(-c3c(C)n(C)c4sc(C)cc34)n2)c(OC)cc1N(C)CCN(C)C [Example 31, N-(2-((2-(dimethylamino)ethyl)(methyl)amino)-4-methoxy-5-((4-(2,5,6-trimethyl-thieno[2,3-b]pyrrol-4-yl)pyrimidin-2-yl)amino)phenyl)acrylamide]
0.0094 µM | 0.147 µM | C=CC(=O)Nc1cc(Nc2ncnc(-c3cccc4cc[nH]c34)n2)c(OC)cc1N(C)CCN(C)C [Example 32, N-(5-((4-(H-indol-7-yl)-1,3,5-triazin-2-yl)amino)-2-((2-(dimethylamino)ethyl)(methyl)amino)-4-methoxyphenyl)acylamide]
0.0098 µM | 0.1 µM | C=CC(=O)Nc1cc(Nc2ncnc(-c3cccc4cc[nH]c34)n2)c(OC(F)F)cc1N(C)CCN(C)C [Example 33, N-(5-((4-(1H-indol-7-yl)-1,3,5-triazin-2-yl)amino)-4-(difluoromethoxy)-2-((2-(dimethylamino)ethyl)(methyl)amino)phenyl)acrylamide]
0.114 µM | 1.11 µM | C=CC(=O)Nc1cc(Nc2ncnc(-c3cccc4cc[nH]c34)n2)c(OC)cc1N1CC2(CCCN2C)C1 [Example 36, N-(5-((4-(1H-indol-7-yl)-1,3,5-triazin-2-yl)amino)-4-methoxy-2-(5-methyl-2,5-diazaspiro[3.4]oct-2-yl)phenyl)acrylamide]
0.0083 µM | 0.144 µM | C=CC(=O)Nc1cc(Nc2ncnc(-c3cn(C)c4ncccc34)n2)c(OC(F)F)cc1N(C)CCN(C)C [Example 38, N-(4-(difluoromethoxy)-2-((2-(dimethylamino)ethyl)(methyl)amino)-5-((4-(1-methyl-1H-pyrrolo[2,3-b]pyridin-3-yl)-1,3,5-triazin-2-yl)amino)phenyl)acrylamide]
